# Laboratory results from ChEMBL document CHEMBL2074506, “Effects of ursodeoxycholic and cholic acid feeding on hepatocellular transporter expression in mouse liver” (Gastroenterology, 2001).
# Columns and labels:
# Assay type in all cases: functional, organism-based
# [1] = biological target: T1, ATP-binding cassette sub-family C member 2 (Mus musculus, UniProt Q8VI47); experiment: TP_TRANSPORTER: Western (protein level: increase to 350%) in vivo, liver of Him OF1 mouse
# [2] = biological target: T1, ATP-binding cassette sub-family C member 2; experiment: TP_TRANSPORTER: RT-PCR (mRNA level: 3 fold) in vivo, liver of Him OF1 mouse
# [3] = biological target: T2, ATP-dependent translocase ABCB1 (Mus musculus, UniProt P21447); experiment: TP_TRANSPORTER: Western (protein level: increase to 220%) in vivo, liver of Him OF1 mouse
# [4] = biological target: T2, ATP-dependent translocase ABCB1; experiment: TP_TRANSPORTER: RT-PCR (mRNA level: 2 fold) in vivo, liver of Him OF1 mouse
# [5] = biological target: T3, Solute carrier organic anion transporter family member 1A1 (Mus musculus, UniProt Q9QXZ6); experiment: TP_TRANSPORTER: Western (protein level: reduction to 45% of control) in vivo, liver of Him OF1 mouse
# T3 sequence (Q9QXZ6 whole entry): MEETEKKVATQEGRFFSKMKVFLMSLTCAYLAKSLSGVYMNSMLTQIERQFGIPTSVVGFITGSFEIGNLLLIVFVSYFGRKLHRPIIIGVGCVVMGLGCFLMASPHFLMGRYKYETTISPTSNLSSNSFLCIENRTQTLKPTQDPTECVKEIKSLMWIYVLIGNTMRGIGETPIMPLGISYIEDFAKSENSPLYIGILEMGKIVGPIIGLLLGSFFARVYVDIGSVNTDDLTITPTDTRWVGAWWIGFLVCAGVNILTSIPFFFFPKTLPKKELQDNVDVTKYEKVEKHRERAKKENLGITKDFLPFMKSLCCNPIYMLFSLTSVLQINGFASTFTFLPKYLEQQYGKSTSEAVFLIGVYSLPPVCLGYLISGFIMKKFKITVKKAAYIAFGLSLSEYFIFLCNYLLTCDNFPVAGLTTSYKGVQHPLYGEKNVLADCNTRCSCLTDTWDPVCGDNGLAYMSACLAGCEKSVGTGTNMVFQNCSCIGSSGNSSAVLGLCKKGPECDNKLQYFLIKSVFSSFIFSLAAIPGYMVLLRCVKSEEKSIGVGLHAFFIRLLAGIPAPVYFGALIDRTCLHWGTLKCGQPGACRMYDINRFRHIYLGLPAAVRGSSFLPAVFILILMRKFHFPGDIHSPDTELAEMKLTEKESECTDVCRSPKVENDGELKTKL
# [6] = biological target: T3, Solute carrier organic anion transporter family member 1A1; experiment: TP_TRANSPORTER: RT-PCR (mRNA level: reduction to 72 % of control) in vivo, liver of Him OF1 mouse
# T1 sequence (Q8VI47 whole entry): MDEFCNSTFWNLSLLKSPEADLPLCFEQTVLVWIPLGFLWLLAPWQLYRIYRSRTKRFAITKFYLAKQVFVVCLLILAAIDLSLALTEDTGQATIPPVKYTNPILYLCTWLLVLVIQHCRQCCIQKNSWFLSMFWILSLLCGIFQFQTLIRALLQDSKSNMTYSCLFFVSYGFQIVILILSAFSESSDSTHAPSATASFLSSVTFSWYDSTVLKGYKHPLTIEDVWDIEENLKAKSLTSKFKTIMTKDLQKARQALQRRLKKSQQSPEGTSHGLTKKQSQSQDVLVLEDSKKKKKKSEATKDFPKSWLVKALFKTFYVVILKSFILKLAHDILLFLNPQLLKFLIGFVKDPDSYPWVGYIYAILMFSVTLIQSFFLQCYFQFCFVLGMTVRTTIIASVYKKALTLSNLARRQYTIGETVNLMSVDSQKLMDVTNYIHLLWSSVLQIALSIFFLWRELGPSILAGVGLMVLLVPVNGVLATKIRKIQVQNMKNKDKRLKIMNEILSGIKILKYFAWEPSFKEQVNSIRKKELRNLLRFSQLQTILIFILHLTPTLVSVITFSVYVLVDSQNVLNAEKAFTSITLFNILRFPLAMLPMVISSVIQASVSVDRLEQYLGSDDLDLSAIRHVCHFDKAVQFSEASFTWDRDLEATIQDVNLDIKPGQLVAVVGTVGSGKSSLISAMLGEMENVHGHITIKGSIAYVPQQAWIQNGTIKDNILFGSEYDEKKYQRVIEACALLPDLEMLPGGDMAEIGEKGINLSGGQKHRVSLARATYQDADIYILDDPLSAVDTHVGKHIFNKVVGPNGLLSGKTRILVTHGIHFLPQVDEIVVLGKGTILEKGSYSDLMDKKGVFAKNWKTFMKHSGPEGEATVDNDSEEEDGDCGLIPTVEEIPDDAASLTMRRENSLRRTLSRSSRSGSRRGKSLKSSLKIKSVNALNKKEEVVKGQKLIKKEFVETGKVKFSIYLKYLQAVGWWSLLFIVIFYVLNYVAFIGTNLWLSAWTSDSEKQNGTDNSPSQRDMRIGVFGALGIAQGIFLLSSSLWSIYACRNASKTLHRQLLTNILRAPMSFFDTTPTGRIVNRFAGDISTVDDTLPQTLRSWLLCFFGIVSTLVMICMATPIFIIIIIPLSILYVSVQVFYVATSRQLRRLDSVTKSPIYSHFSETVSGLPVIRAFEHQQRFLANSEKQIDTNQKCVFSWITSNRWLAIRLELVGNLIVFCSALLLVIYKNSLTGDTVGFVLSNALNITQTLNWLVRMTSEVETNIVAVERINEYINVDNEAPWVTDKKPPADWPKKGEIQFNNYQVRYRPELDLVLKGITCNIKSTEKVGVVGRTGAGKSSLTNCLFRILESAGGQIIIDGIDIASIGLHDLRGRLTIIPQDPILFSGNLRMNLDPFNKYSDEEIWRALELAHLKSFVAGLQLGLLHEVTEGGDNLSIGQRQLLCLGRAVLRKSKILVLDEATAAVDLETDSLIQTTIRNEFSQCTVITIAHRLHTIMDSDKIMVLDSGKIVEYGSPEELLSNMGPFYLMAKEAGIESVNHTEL
# T2 sequence (P21447 whole entry): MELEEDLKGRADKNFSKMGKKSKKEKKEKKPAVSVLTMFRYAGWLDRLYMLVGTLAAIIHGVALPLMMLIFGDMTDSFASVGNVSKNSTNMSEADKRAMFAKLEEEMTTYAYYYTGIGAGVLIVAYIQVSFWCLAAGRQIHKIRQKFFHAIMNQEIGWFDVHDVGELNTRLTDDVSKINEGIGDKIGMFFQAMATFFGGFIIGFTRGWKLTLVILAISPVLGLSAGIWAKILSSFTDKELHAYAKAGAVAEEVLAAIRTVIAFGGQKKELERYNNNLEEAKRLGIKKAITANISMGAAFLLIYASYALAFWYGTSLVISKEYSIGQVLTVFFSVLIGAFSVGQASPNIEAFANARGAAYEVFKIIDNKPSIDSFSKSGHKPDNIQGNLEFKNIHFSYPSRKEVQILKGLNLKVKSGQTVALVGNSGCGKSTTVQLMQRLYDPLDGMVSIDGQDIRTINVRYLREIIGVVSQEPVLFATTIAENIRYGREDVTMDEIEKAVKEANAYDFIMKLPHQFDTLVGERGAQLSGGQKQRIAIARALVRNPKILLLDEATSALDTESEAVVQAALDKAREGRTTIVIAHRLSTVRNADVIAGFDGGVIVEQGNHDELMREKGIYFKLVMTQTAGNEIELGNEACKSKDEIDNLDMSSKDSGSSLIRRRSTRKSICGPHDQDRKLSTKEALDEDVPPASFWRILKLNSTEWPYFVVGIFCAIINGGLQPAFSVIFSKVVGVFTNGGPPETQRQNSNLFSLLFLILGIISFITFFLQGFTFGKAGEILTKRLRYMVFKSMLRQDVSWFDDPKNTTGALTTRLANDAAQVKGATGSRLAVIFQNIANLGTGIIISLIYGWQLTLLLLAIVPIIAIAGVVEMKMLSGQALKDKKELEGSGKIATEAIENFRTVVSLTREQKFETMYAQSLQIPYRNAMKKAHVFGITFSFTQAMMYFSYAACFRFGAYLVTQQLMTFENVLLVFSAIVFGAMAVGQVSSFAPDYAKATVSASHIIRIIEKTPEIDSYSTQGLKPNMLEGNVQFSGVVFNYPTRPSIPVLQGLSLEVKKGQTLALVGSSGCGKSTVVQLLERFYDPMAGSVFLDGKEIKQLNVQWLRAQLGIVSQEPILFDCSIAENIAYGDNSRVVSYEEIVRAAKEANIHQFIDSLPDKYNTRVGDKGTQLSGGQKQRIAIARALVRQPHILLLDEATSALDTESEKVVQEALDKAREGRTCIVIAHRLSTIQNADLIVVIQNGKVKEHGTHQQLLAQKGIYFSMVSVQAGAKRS
structure (smiles),measurement,setting,value
C[C@H](CCC(=O)O)[C@H]1CC[C@H]2[C@@H]3[C@@H](O)C[C@@H]4C[C@H](O)CC[C@]4(C)[C@H]3CC[C@]12C [URSODIOL],Activity,[1],inducer [+]
same,Activity,[2],inducer [+]
same,Activity,[3],inducer [+]
same,Activity,[4],inducer [+]
same,Activity,[5],inducer [Decrease]
same,Activity,[6],inducer [Decrease]
